# In PMC9916883, “Betaine- and L-Carnitine-Based Ionic Liquids as Solubilising and Stabilising Agents for the Formulation of Antimicrobial Eye Drops Containing Diacerein” (International Journal of Molecular Sciences, 2023):
# Values joined by “and” are separate entries in the source; they are usually repeats but may differ in a detail not shown here. Equal entries are not always repeated. Where two headings read alike, the source gives them in different places.
# How the values were obtained:
# [1] = system: S. aureus W4; assay: Killing assay; format: cell-based, Staphylococcus aureus; settings: 3 h incubation in 5% TSB, ILs 0.27 M; for bactericidal effect: DIA 0.34 M; for CFU after treatment (limit of detection): DIA 0.34 M if loaded
# Experimental: (§1) To this end, the bacterial strains were grown in TSB until the exponential phase, and approximately 5 × 10^4 CFU/mL-contained in 10 μL-was added to 5 μL of TSB, 35 μL of water, and 50 μL of one of the following solutions corresponding to the eye drop compositions tested in vivo: Bet6 or Carn6 with 0.27 M or 0.34 M DIA, plain DIA (0.34 M) solution, or plain Bet6/plain Carn6, both at 0.27 M. All solutions were prepared in CB. The samples were incubated at 37 °C with shaking for 3 h. A sample containing 0.6% DMSO (corresponding to the highest concentration of DMSO tested) was used as a control. Following incubation, the samples were diluted 10-fold in LB and plated on tryptone soy agar (TSA, Oxoid) to determine the number of CFU. Bactericidal activity was defined as a reduction of at least 3 Log10 in the number of viable bacteria as compared to the inoculum.
# [2] = IL aggregates' size and zeta potential in aqueous solutions (DLS, Zetasizer); format: physicochemical
# Experimental: The size distribution and zeta potential values of the ILs’ aggregates in aqueous solutions were evaluated by using a Zetasizer Nano ZS (Malvern) at 25 °C. The samples were prepared by adding an excess of either DIA or Rhe (5 mg/mL) to the aqueous IL solutions, incubating them for 30 min at 25 °C, and finally removing the excess drugs by centrifugation. […] In contrast, for PB solutions, the solutions were prepared in water, and […] of 100 mM pH 7 phosphate buffer was added per 1 mL of aqueous solution, directly in the cuvette, before the dynamic light scattering (DLS) analysis started. The concentrations of the solubilised drug were determined by UV–Vis analysis.
# [3] = Critical aggregation concentration (CAC) by surface tension; format: physicochemical; settings: in water; for critical aggregation concentration (CAC): via surface tension
# Experimental: The CACs of the ILs were determined by measuring the surface tension (Tensiometer du Nouy, Force Tensiometer K6 from KRÜSS (GmbH)) of aqueous solutions with increasing IL concentrations. Milli-Q H2O was used as a reference, with γ equal to 71 ± 1.3 mN/m at 25 ± 2 °C (Dortmund databank reference, 71.5 ± 0.5 mN/m 24 ± 1.4 °C). Surface tension values were plotted vs. logarithms of the ILs’ concentrations, linear fits were applied to the data points, and CAC was determined as the intersection of the two linear fits relative to the initial surface tension depression and the further plateau.
# [4] = system: type II porcine gastric mucin; assay: Mucoadhesion by microrheological method; format: physicochemical
# Experimental: The measurements were performed using the Zetasizer Nano ZS instrument, as previously reported. The microrheological characterisation of the ILs was performed using type II porcine gastric mucin. Porcine gastric mucin was used because no ocular mucins were available, and as it has already been used for ocular models. Briefly, a 3 mg/mL suspension of type II porcine gastric mucin was prepared in Milli-Q water and filtered through 0.45 µm cellulose acetate filters. Next, 0.27 M and 0.20 M solutions of both ionic liquids in deionised water were prepared (corresponding to concentrations 15% higher and lower than the CAC, respectively). One millilitre of each sample to be tested had the following composition: 5 µL of tracer (latex polystyrene particles, diameter 500 nm, Beckman), 7.38 mg/mL of IL solution, 0.3 mg of mucin, and 8.1 mg/mL of 5% NaCl. As a reference, 1 mL of sample was prepared with the same composition but without the ILs. All measurements were carried out in triplicate.
# [5] = system: BALB/3T3 clone A31 fibroblast cells; assay: Cytotoxicity screening (WST-1); format: cell-based, murine; settings: Mus musculus, 4 h incubation, read-out: IC50 of cell viability
# Experimental: BALB/3T3 clone A31 fibroblast cells were grown in Dulbecco’s Modified Eagle Medium (DMEM), supplemented with 2 mM L-glutamine, 1% penicillin/streptomycin, and 10% bovine calf serum. Cells were grown in a CO2 incubator (Heracell 150i series) at 37 °C and 5% CO2, with cells sub-cultured at 80–90% confluency. The cell monolayers were rinsed with PBS and treated with trypsin–EDTA to detach the cells before their resuspension in fresh media. A subconfluent monolayer of BALB/3T3 clone A31 fibroblast cells was trypsinised, centrifuged at 1000 rpm for 5 min, resuspended in growth medium, and counted.
# A cytotoxicity screening was carried out for both ILs (range […]), as well as DIA and Rhe (0.5–200 mg/mL). Briefly, BALB/3T3 clone A31 fibroblast cells were seeded in each well of 96-well plates at a seeding density of 6 × 10^3 cells/well for 24 h, until 60–70% confluence was reached. After 24 h, the medium was then removed from each well and replaced with DMEM containing the samples.
# After 4 h of incubation, the media were removed, replaced with fresh medium containing 10% WST-1 reagent solution, and maintained for 4 h at 37° C with 5% CO2. Afterwards, formazan dye absorbance was quantified at 450 nm with the reference wavelength at 655 nm by using a multilabel reader (BioTek 800/TS, Thermo Scientific).
# [6] = system: P. aeruginosa ATCC 27853; assay: Killing assay; format: cell-based, Pseudomonas aeruginosa; settings: 3 h incubation in 5% TSB, ILs 0.27 M; for bactericidal effect: DIA 0.34 M; for CFU after treatment (limit of detection): DIA 0.34 M if loaded
# Experimental: as §1
# [7] = IL 180 μg/mL, DIA + (saturation), CB pH5
# [8] = IL 180 μg/mL, Rhe + (saturation), PB pH7
# [9] = IL 200 μg/mL, DIA + (saturation), CB pH5
# [10] = IL 200 μg/mL, DIA + (saturation), H2O pH4
# [11] = IL 200 μg/mL, Rhe + (saturation), H2O pH4
# [12] = mucin with IL at 0.20 M (lower than CAC)
# [13] = mucin with IL at 0.27 M (higher than CAC)
compound,measurement,setting,value
"CCCCCCOC(=O)C[N+](C)(C)C.[Br-] [Bet6, (2-hexyloxy-2-oxoethyl)-trimethylammonium bromide]",bactericidal effect,[1],strong bactericidal effect
same,CFU after treatment (limit of detection),[1],< 100 CFU/mL
same,PDI,"[2]; IL 90 μg/mL, no drug, H2O pH4",0.01 ± 0.002
same,Ø (aggregates size),"[2]; IL 90 μg/mL, no drug, H2O pH4",0.80 ± 0.03 nm
same,PDI,"[2]; IL 105 μg/mL, no drug, H2O pH4",0.01 ± 0.005
same,Ø (aggregates size),"[2]; IL 105 μg/mL, no drug, H2O pH4",0.96 ±0.07 nm
same,PDI,"[2]; IL 170 μg/mL, no drug, H2O pH4",0.01 ± 0.005
same,Ø (aggregates size),"[2]; IL 170 μg/mL, no drug, H2O pH4",1.96 ± 0.30 nm
same,PDI,[2]; [7],0.01 ± 0.005
same,Ø (aggregates size),[2]; [7],1.73 ± 0.40 nm
same,ζ (zeta potential),[2]; [7],2.82 ± 1.17 mV
same,PDI,[2]; [8],0.03 ± 0.005
same,Ø (aggregates size),[2]; [8],1.71 ± 0.49 nm
same,ζ (zeta potential),[2]; [8],5.77 ± 0.54 mV
same,PDI,"[2]; IL 180 μg/mL, no drug, CB pH5",0.01 ± 0.005
same,Ø (aggregates size),"[2]; IL 180 μg/mL, no drug, CB pH5",1.76 ± 0.38 nm
same,ζ (zeta potential),"[2]; IL 180 μg/mL, no drug, CB pH5",0.65 ± 0.53 mV
same,PDI,"[2]; IL 180 μg/mL, no drug, PB pH7",0.01 ± 0.005
same,Ø (aggregates size),"[2]; IL 180 μg/mL, no drug, PB pH7",1.79 ± 0.41 nm
same,ζ (zeta potential),"[2]; IL 180 μg/mL, no drug, PB pH7",8.93 ± 0.94 mV
same,PDI,[2]; [9],0.02 ± 0.005
same,Ø (aggregates size),[2]; [9],2.01 ± 0.60 nm
same,ζ (zeta potential),[2]; [9],0.16 ± 1.85 mV
same,PDI,[2]; [10],0.02 ± 0.005
same,Ø (aggregates size),[2]; [10],1.69 ± 0.92 nm
same,ζ (zeta potential),[2]; [10],9.53 ± 1.68 mV
same,PDI,[2]; [11],0.01 ±0.005
same,Ø (aggregates size),[2]; [11],1.63 ± 0.21 nm
same,ζ (zeta potential),[2]; [11],8.17 ± 0.94 mV
same,PDI,"[2]; IL 200 μg/mL, no drug, CB pH5",0.03 ± 0.005
same,Ø (aggregates size),"[2]; IL 200 μg/mL, no drug, CB pH5",1.97 ± 0.44 nm
same,ζ (zeta potential),"[2]; IL 200 μg/mL, no drug, CB pH5",2.62 ± 0.96 mV
same,PDI,"[2]; IL 200 μg/mL, no drug, H2O pH4",0.01 ± 0.005
same,Ø (aggregates size),"[2]; IL 200 μg/mL, no drug, H2O pH4",1.81 ± 0.41 nm
same,ζ (zeta potential),"[2]; IL 200 μg/mL, no drug, H2O pH4",13.70 ± 1.60 mV
same,surface tension at the CAC (σ),[3],34.2 mN/m
same,critical aggregation concentration (CAC),[3],0.227 M and 0.227 ± 0.016 M
same,Relative Viscosity,[4]; [12],0.79 ± 0.01 cP
same,Relative Viscosity,[4]; [13],1.32 ± 0.13 cP
same,IC50,[5],7500 µg/mL
same,IC50,[5]; murine fibroblasts,26.8 mM
same,bactericidal effect,[6],strong bactericidal effect
same,CFU after treatment (limit of detection),[6],< 100 CFU/mL
"CCCCCCOC(=O)C[C@@H](O)C[N+](C)(C)C [Carn6, (R)-(4-hexyloxy-2-hydroxy-4-oxobutyl)-trimethylammonium bromide]",bactericidal effect,[1],strong bactericidal effect
same,CFU after treatment (limit of detection),[1],< 100 CFU/mL
same,PDI,"[2]; IL 90 μg/mL, no drug, H2O pH4",0.01 ± 0.002
same,Ø (aggregates size),"[2]; IL 90 μg/mL, no drug, H2O pH4",1.17 ± 0.03 nm
same,PDI,"[2]; IL 105 μg/mL, no drug, H2O pH4",0.01 ± 0.002
same,Ø (aggregates size),"[2]; IL 105 μg/mL, no drug, H2O pH4",1.53 ± 0.07 nm
same,PDI,"[2]; IL 170 μg/mL, no drug, H2O pH4",0.03 ± 0.016
same,Ø (aggregates size),"[2]; IL 170 μg/mL, no drug, H2O pH4",2.12 ± 0.14 nm
same,PDI,[2]; [7],0.01 ± 0.005
same,Ø (aggregates size),[2]; [7],2.24 ± 0.47 nm
same,ζ (zeta potential),[2]; [7],1.85 ± 0.47 mV
same,PDI,[2]; [8],0.02 ± 0.005
same,Ø (aggregates size),[2]; [8],2.03 ± 0.46 nm
same,ζ (zeta potential),[2]; [8],9.38 ± 1.22 mV
same,PDI,"[2]; IL 180 μg/mL, no drug, CB pH5",0.01 ± 0.005
same,Ø (aggregates size),"[2]; IL 180 μg/mL, no drug, CB pH5",2.04 ± 0.43 nm
same,ζ (zeta potential),"[2]; IL 180 μg/mL, no drug, CB pH5",2.56 ± 0.34 mV
same,PDI,"[2]; IL 180 μg/mL, no drug, PB pH7",0.004± 0.005
same,Ø (aggregates size),"[2]; IL 180 μg/mL, no drug, PB pH7",1.91 ± 0.27 nm
same,ζ (zeta potential),"[2]; IL 180 μg/mL, no drug, PB pH7",10.70 ± 1.16 mV
same,PDI,[2]; [9],0.01 ± 0.005
same,Ø (aggregates size),[2]; [9],2.40 ± 0.56 nm
same,ζ (zeta potential),[2]; [9],4.17 ± 0.20 mV
same,PDI,[2]; [10],0.02 ± 0.005
same,Ø (aggregates size),[2]; [10],2.14 ± 0.55 nm
same,ζ (zeta potential),[2]; [10],12.20 ± 1.96 mV
same,PDI,[2]; [11],0.02 ± 0.005
same,Ø (aggregates size),[2]; [11],2.11 ± 0.50 nm
same,ζ (zeta potential),[2]; [11],12.80 ± 1.27 mV
same,PDI,"[2]; IL 200 μg/mL, no drug, CB pH5",0.07 ± 0.005
same,Ø (aggregates size),"[2]; IL 200 μg/mL, no drug, CB pH5",2.34 ± 0.66 nm
same,ζ (zeta potential),"[2]; IL 200 μg/mL, no drug, CB pH5",2.08 ± 0.13 mV
same,PDI,"[2]; IL 200 μg/mL, no drug, H2O pH4",0.01 ± 0.005
same,Ø (aggregates size),"[2]; IL 200 μg/mL, no drug, H2O pH4",1.87 ± 0.42 nm
same,ζ (zeta potential),"[2]; IL 200 μg/mL, no drug, H2O pH4",14.30 ± 2.33 mV
same,surface tension at the CAC (σ),[3],36.1 mN/m
same,critical aggregation concentration (CAC),[3],0.226 M and 0.226 ± 0.020 M
same,Relative Viscosity,[4]; [12],0.75 ± 0.01 cP
same,Relative Viscosity,[4]; [13],1.31 ± 0.26 cP
same,IC50,[5],9000 µg/mL
same,IC50,[5]; murine fibroblasts,27.8 mM
same,bactericidal effect,[6],strong bactericidal effect
same,CFU after treatment (limit of detection),[6],< 100 CFU/mL
